The results in this text go back to patent publication US9624229B2, “Pyrimidine-2-amine compounds and their use as inhibitors of JAK kinases” (Rigel Pharmaceuticals, Inc., priority 2008, dated 2017).

SMILES strings stand for the structures. A value given as a limit tells only on which side of the number the result lay.

Sequence of Ba/F3 V617F cells (O60674 whole entry V617F): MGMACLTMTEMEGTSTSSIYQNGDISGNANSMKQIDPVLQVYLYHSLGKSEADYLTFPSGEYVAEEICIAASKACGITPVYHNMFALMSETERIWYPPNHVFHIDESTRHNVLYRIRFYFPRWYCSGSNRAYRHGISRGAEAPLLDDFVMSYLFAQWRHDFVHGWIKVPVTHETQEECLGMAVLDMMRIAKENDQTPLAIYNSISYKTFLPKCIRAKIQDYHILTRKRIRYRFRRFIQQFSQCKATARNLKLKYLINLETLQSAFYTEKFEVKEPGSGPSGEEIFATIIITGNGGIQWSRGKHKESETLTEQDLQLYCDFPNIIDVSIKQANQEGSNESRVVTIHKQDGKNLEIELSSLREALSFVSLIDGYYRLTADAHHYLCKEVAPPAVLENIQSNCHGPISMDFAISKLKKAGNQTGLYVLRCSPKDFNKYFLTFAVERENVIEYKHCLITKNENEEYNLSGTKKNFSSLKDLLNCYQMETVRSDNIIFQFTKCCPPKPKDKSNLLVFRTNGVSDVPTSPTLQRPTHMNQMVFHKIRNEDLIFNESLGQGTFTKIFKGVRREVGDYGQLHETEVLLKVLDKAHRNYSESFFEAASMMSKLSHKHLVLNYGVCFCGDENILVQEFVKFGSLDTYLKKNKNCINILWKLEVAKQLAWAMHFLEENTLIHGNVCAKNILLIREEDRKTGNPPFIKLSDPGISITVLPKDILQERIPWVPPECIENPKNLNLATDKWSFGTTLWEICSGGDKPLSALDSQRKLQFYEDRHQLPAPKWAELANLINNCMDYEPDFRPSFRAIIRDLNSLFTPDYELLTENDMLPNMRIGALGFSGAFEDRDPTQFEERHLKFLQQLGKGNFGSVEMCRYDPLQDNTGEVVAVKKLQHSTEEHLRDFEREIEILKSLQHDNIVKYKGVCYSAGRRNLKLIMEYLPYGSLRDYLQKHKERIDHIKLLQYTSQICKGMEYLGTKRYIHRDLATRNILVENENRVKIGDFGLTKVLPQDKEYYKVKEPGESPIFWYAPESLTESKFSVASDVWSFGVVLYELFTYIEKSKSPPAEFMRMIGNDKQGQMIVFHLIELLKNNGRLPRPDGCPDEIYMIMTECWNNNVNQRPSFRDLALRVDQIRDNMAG

The first experiment addresses Ba/F3 V617F cells (Homo sapiens, UniProt O60674, V617F, cells depend on it). The experiment in a line: Proliferation assay (Cell Titer-Glo, 72 h) utilizing Ba/F3 V617F cells. The experiment is classed as cell-based, mouse. Conditions: Ba/F3 V617F cells, proliferation, level of activity given as class symbol, read-out: IC50 (the source's name). The method, then: Ba/F3 V617F cells are maintained and plated in RPMI with 10% FBS. Plating density for these cells is 1×10^5 cells/mL.
The cells were resuspended in a corresponding medium at a required cell density (see above). 100μ of cell suspension was added to each well of a flat bottom 96 well white plate. The compound was serially diluted in DMSO from 5 mM in 3-fold dilutions, and then diluted 1:250 in the RPMI 1640 medium containing 5% FBS and pen/strep. 100 μL of resulting 2× compound solution was added per well in duplicate and the cells were allowed to proliferate for 72 hours at 37° C.
Proliferation was measured using Cell Titer-Glo. The substrate was thawed and allowed to come to ambient temperature. After removal of top 100 μL of medium from each well, 100 μL of the premixed Cell Titer-Glo reagent was added to each well. The plates were mixed on an orbital shaker for three minutes to induce lysis and incubated at ambient temperature for an additional five minutes to allow the signal to equilibrate. The Luminescence was read on the Wallac Plate Reader.
The results of the ability of the compounds of the invention to inhibit JAK2 activity, when tested in the above assay utilizing Ba/F3 V617F cells, are shown in the following Tables 2-3 wherein the level of activity (i.e., the IC50) for each compound is indicated in Tables 2-3. The compound numbers in Tables 2-3 refers to the compounds disclosed herein as being prepared by the methods disclosed herein: […]
On to `CCN1C[C@@H]2C[C@H]1CN2c1ccc(Nc2nccc(-c3ccc4c(ccn4-c4ccncc4)c3)n2)cc1C` [compound 234, 4-(1-(pyridin-4-yl)-1H-indol-5-yl)-N-(3-methyl-4-((1S,4S)-5-ethyl-2,5-diazabicyclo[2.2.1]heptan-2-yl)phenyl)pyrimidin-2-amine], for which the GI50 was below 1000 nM.
`Cc1cc(Nc2nccc(-c3ccc(N4C[C@@H](C)O[C@@H](C)C4)nc3)n2)ccc1N1CC2(C)CN(C)CC(C)(C1)C2` [compound 212, 4-(6-((2S,6R)-2,6-dimethylmorpholin-4-yl)pyridin-3-yl)-N-(3-methyl-4-(1,5,7-trimethyl-3,7-diazabicyclo[3.3.1]nonan-3-yl)phenyl)pyrimidin-2-amine]: the GI50 is below 1000 nM.
Take `CC(=O)N1C[C@@H]2C[C@H]1CN2c1ccc(Nc2nccc(-c3ccc(N4CCOCC4)nc3)n2)cc1Cl` [compound 259, 4-(6-(morpholin-4-yl)pyridin-3-yl)-N-(3-chloro-4-((1S,4S)-5-acetyl-2,5-diazabicyclo[2.2.1]heptan-2-yl)phenyl)pyrimidin-2-amine]: the GI50 was below 1000 nM.
On the same count and under the same terms, the value for `CN1CC2(C)CN(c3ccc(Nc4nccc(-c5cnc6c(c5)OC(C)(C)C(=O)N6)n4)cc3F)CC(C)(C1)C2` [compound 208, 4-(2,2-dimethyl-3-oxo-3,4-dihydro-2H-pyrido[3,2-b][1,4]oxazin-7-yl)-N-(3-fluoro-4-(1,5,7-trimethyl-3,7-diazabicyclo[3.3.1]nonan-3-yl)phenyl)pyrimidin-2-amine] was 1000 to 10000 nM; that for `CCC(=O)N1C[C@@H]2C[C@H]1CN2c1ccc(Nc2nccc(-c3ccc(NCCN4CCOCC4)nc3)n2)cc1C` [compound 197, 4-(6-(2-(morpholin-4-yl)ethyl)aminopyridin-3-yl)-N-(3-methyl-4-((1S,4S)-5-ethylcarbonyl-2,5-diazabicyclo[2.2.1]heptan-2-yl)phenyl)pyrimidin-2-amine] was 1000 to 10000 nM.
The same measure, in the same setting: the value for `Cc1cc(Nc2nccc(-c3cnc4c(c3)OC(C)(C)C(=O)N4)n2)ccc1N1CC2(C)CN(C)CC(C)(C1)C2` [compound 207, 4-(2,2-dimethyl-3-oxo-3,4-dihydro-2H-pyrido[3,2-b][1,4]oxazin-7-yl)-N-(3-methyl-4-(1,5,7-trimethyl-3,7-diazabicyclo[3.3.1]nonan-3-yl)phenyl)pyrimidin-2-amine] was below 1000 nM.

The same experiment, now with this note: Ba/F3 V617F cells, proliferation, level of activity to inhibit JAK2, read-out: IC50 (the source's name).
Regarding `Cc1cc(Nc2nccc(-c3ccc4c(c3)CC(=O)N4)n2)ccc1N1CCN2CCC1C2` (stereo not shown) [compound 121, 4-(2-oxoindolin-5-yl)-N-(3-methyl-4-(1,4-diazabicyclo[3.2.1]octan-4-yl)phenyl)pyrimidin-2-amine], the GI50 was below 1000 nM.
As to `Cc1cc(Nc2nccc(-c3ccc(NCc4ccccc4)nc3)n2)ccc1N1C[C@@H]2C[C@H]1CN2C` [compound 80, 4-(6-(benzylamino)pyridin-3-yl)-N-(3-methyl-4-((1S,4S)-5-methyl-2,5-diazabicyclo[2.2.1]heptan-2-yl)phenyl)pyrimidin-2-amine], the GI50 is below 1000 nM.
On the same count and under the same terms, the value for `Cc1cc(Nc2nccc(-c3ccc(NC(=O)CN(C)C)nc3)n2)ccc1N1C[C@@H]2C[C@H]1CN2C` [compound 152, 4-(6-(2-(dimethylamino)acetamido)-pyridin-3-yl)-N-(3-methyl-4-((1S,4S)-5-methyl-2,5-diazabicyclo[2.2.1]heptan-2-yl)phenyl)pyrimidin-2-amine] was below 1000 nM; that for `Cc1cc(Nc2nccc(-c3ccc(NS(C)(=O)=O)nc3)n2)ccc1N1CC2CCC(C1)N2C` [compound 167, 4-(6-(methylsulfonylamino)pyridin-3-yl)-N-(3-methyl-4-(8-methyl-3,8-diazabicyclo[3.2.1]octan-3-yl)phenyl)pyrimidin-2-amine] was below 1000 nM; that for `CC(=O)N1C[C@@H]2C[C@H]1CN2c1ccc(Nc2nccc(-c3ccc(N4CCOCC4)nc3)n2)cc1C#N` [compound 116, 4-(6-(morpholin-4-yl)pyridin-3-yl)-N-(3-cyano-4-((1S,4S)-5-acetyl-2,5-diazabicyclo[2.2.1]heptan-2-yl)phenyl)pyrimidin-2-amine] was below 1000 nM.
`Cc1cc(Nc2nccc(-c3cncc(S(C)(=O)=O)c3)n2)ccc1N1C[C@@H]2C[C@H]1CN2C` [compound 95, 4-(5-(methyl)sulfonylpyridin-3-yl)-N-(3-methyl-4-((1S,4S)-5-methyl-2,5-diazabicyclo[2.2.1]heptan-2-yl)phenyl)pyrimidin-2-amine]: the GI50 is below 1000 nM.
For `Cc1cc(Nc2nccc(-c3cnc4c(c3)OC(C)(C)C(=O)N4C)n2)ccc1N1C[C@@H]2C[C@H]1CN2C` [compound 125, 4-(2,2,4-trimethyl-3-oxo-3,4-dihydro-2H-pyrido[3,2-b][1,4]oxazin-7-yl)-N-(3-methyl-4-((1S,4S)-5-methyl-2,5-diazabicyclo[2.2.1]heptan-2-yl)phenyl)pyrimidin-2-amine], the GI50 was below 1000 nM.
Same read-out and setting: in the case of `CN1C2CCC1CN(c1ccc(Nc3nccc(-c4cnc5c(c4)OC(C)(C)C(=O)N5)n3)cc1)C2` [compound 157, 4-(2,2-dimethyl-3-oxo-3,4-dihydro-2H-pyrido[3,2-b][1,4]oxazin-7-yl)-N-(4-(8-methyl-3,8-diazabicyclo[3.2.1]octan-3-yl)phenyl)pyrimidin-2-amine] it was below 1000 nM; in that of `CCN(CC)c1nc(-c2ccnc(Nc3ccc(N4C[C@@H]5C[C@H]4CN5C)c(F)c3)n2)cs1` [compound 164, 4-(2-(diethylamino)thiazol-4-yl)-N-(3-fluoro-4-((1S,4S)-5-methyl-2,5-diazabicyclo[2.2.1]heptan-2-yl)phenyl)pyrimidin-2-amine], below 1000 nM; in that of `CN1C[C@@H]2C[C@H]1CN2c1ccc(Nc2nccc(-c3ccc(NC4CCCCC4)nc3)n2)cc1F` [compound 79, 4-(6-(cyclohexylamino)pyridin-3-yl)-N-(3-fluoro-4-((1S,4S)-5-methyl-2,5-diazabicyclo[2.2.1]heptan-2-yl)phenyl)pyrimidin-2-amine], below 1000 nM.
Still for that read-out and setting: in the case of `Cc1cc(Nc2nccc(-c3ccc(N4CCOCC4)nc3)n2)ccc1N1CC2CCC(C1)N2C` [compound 166, 4-(6-(morpholin-4-yl)pyridin-3-yl)-N-(3-methyl-4-(8-methyl-3,8-diazabicyclo[3.2.1]octan-3-yl)phenyl)pyrimidin-2-amine] it was below 1000 nM.
On the same count and under the same terms, the value for `CN1CC2(C)CN(c3ccc(Nc4nccc(-c5cnc6c(c5)OCCN6)n4)cc3F)CC(C)(C1)C2` [compound 89, 4-(3,4-dihydro-2H-pyrido[3,2-b][1,4]oxazin-7-yl)-N-(3-fluoro-4-(1,5,7-trimethyl-3,7-diazabicyclo[3.3.1]nonan-3-yl)phenyl)pyrimidin-2-amine] was 1000 to 10000 nM.
In the case of `Cc1cc(Nc2nccc(-c3cnc4c(c3)OC3(CCC3)C(=O)N4)n2)ccc1N1C[C@@H]2C[C@H]1CN2C` [compound 31, 4-(3′-oxo-3,4′-dihydrospiro[cyclobutane-1,2′-pyrido[3,2-b][1,4]oxazine]-7-yl)-N-(3-methyl-4-((1S,4S)-5-methyl-2,5-diazabicyclo[2.2.1]heptan-2-yl)phenyl)pyrimidin-2-amine], the GI50 is below 1000 nM.
For the compound `Cc1cc(Nc2ncc(C(F)(F)F)c(-c3ccc(N(C)C)nc3)n2)ccc1N1C[C@@H]2C[C@H]1CN2C` [compound 3, 4-(6-(N,N-dimethylamino)pyridin-3-yl)-5-trifluoromethyl-N-(3-methyl-4-((1S,4S)-5-methyl-2,5-diazabicyclo[2.2.1]heptan-2-yl)phenyl)pyrimidin-2-amine], the GI50 is 1000 to 10000 nM.
The same measure, in the same setting: in the case of `Cc1cc(Nc2nccc(-c3cnn(-c4ccc(F)cc4)c3)n2)ccc1N1C[C@@H]2C[C@H]1CN2C` [compound 109, 4-(1-(4-fluorophenyl)-1H-pyrazol-4-yl)-N-(3-methyl-4-((1S,4S)-5-methyl-2,5-diazabicyclo[2.2.1]heptan-2-yl)phenyl)pyrimidin-2-amine] it was below 1000 nM; in that of `CN(C)c1ccc(-c2nc(Nc3ccc(N4C[C@@H]5C[C@H]4CN5C)c(F)c3)ncc2F)cn1` [compound 5, 4-(6-(N,N-dimethylamino)pyridin-3-yl)-5-fluoro-N-(3-fluoro-4-((1S,4S)-5-methyl-2,5-diazabicyclo[2.2.1]heptan-2-yl)phenyl)pyrimidin-2-amine], 1000 to 10000 nM; in that of `CN(C)c1ccc(-c2ccnc(Nc3ccc(N4C[C@@H]5C[C@H]4CN5C)c(C(F)(F)F)c3)n2)cn1` [compound 96, 4-(6-(dimethylamino)pyridin-3-yl)-N-(3-trifluoromethyl-4-((1S,4S)-5-methyl-2,5-diazabicyclo[2.2.1]heptan-2-yl)phenyl)pyrimidin-2-amine], below 1000 nM.
With `CNC(=O)Cc1ccc(-c2ccnc(Nc3ccc(N4C[C@@H]5C[C@H]4CN5C)c(C)c3)n2)cc1` [compound 48, 4-(4-((methyl)aminocarbonylmethyl)-phenyl)-N-(3-methyl-4-((1S,4S)-5-methyl-2,5-diazabicyclo[2.2.1]heptan-2-yl)phenyl)pyrimidin-2-amine], the GI50 lay in the range of 1000 to 10000 nM.
On the same count and under the same terms, in the case of `CN1CC2(C)CN(c3ccc(Nc4nccc(-c5ccc(Cc6ccccc6)nc5)n4)cc3F)CC(C)(C1)C2` [compound 91, 4-(6-(benzyl)pyridin-3-yl)-N-(3-fluoro-4-(1,5,7-trimethyl-3,7-diazabicyclo[3.3.1]nonan-3-yl)phenyl)pyrimidin-2-amine] it was below 1000 nM.
